Assay results reported in PubChem BioAssay (NCI).
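Where inhibition never reached the appropriate level, the endpoint shown equals the highest concentration tested. Otherwise, values were interpolated linearly from a five-concentration, 48-hour dose response in 96-well plates. TGI: concentration producing complete growth inhibition.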

Tests used:
Assay in all cases: NCI anticancer screen, dose series, 48 h
NCI/ADR-RES ovarian = system: NCI/ADR-RES ovarian
MDA-MB-231 breast = system: MDA-MB-231 breast
CCRF-CEM leukemia = system: CCRF-CEM leukemia
ACHN renal = system: ACHN renal
NCI-H226 lung = system: NCI-H226 lung
MALME-3M melanoma = system: MALME-3M melanoma
MCF7 breast = system: MCF7 breast
UACC-257 melanoma = system: UACC-257 melanoma
OVCAR-5 ovarian = system: OVCAR-5 ovarian
UO-31 renal = system: UO-31 renal
CAKI-1 renal = system: CAKI-1 renal
KM12 colon = system: KM12 colon
OVCAR-8 ovarian = system: OVCAR-8 ovarian
MDA-MB-435 = system: MDA-MB-435
MDA-N = system: MDA-N
IGROV1 ovarian = system: IGROV1 ovarian
NCI-H522 lung = system: NCI-H522 lung
UACC-62 melanoma = system: UACC-62 melanoma
COLO 205 colon = system: COLO 205 colon
NCI-H460 lung = system: NCI-H460 lung
HCT-116 colon = system: HCT-116 colon
RXF 393 renal = system: RXF 393 renal
SK-MEL-28 melanoma = system: SK-MEL-28 melanoma
K-562 leukemia = system: K-562 leukemia
786-0 renal = system: 786-0 renal
U251 CNS = system: U251 CNS
SK-OV-3 ovarian = system: SK-OV-3 ovarian
OVCAR-3 ovarian = system: OVCAR-3 ovarian
SNB-75 CNS = system: SNB-75 CNS
NCI-H23 lung = system: NCI-H23 lung
HCC-2998 colon = system: HCC-2998 colon
OVCAR-4 ovarian = system: OVCAR-4 ovarian
MOLT-4 leukemia = system: MOLT-4 leukemia
PC-3 prostate = system: PC-3 prostate
BT-549 breast = system: BT-549 breast
HS 578T breast = system: HS 578T breast
DU-145 prostate = system: DU-145 prostate
A549 NSCLC = system: A549 NSCLC
SNB-19 CNS = system: SNB-19 CNS
EKVX NSCLC = system: EKVX NSCLC
HOP-92 NSCLC = system: HOP-92 NSCLC
SW-620 colon = system: SW-620 colon
SF-295 CNS = system: SF-295 CNS
SN12C renal = system: SN12C renal
T-47D breast = system: T-47D breast
HOP-62 NSCLC = system: HOP-62 NSCLC
M14 melanoma = system: M14 melanoma
SF-268 CNS = system: SF-268 CNS
HT29 colon = system: HT29 colon
LOX IMVI melanoma = system: LOX IMVI melanoma
SK-MEL-5 melanoma = system: SK-MEL-5 melanoma
SK-MEL-2 melanoma = system: SK-MEL-2 melanoma
A498 renal = system: A498 renal
TK-10 renal = system: TK-10 renal
HCT-15 colon = system: HCT-15 colon
SR leukemia = system: SR leukemia
RPMI-8226 leukemia = system: RPMI-8226 leukemia
HL-60(TB) leukemia = system: HL-60(TB) leukemia
SF-539 CNS = system: SF-539 CNS

**Q.** `O=[N+]([O-])c1ccc2c(c1)nc(Cc1ccccc1)n2C[C@@H]1CCCN2CCCCC12` (stereo not given in full) was tested. Which TGI (NCI/ADR-RES ovarian) did it give?
**A.** > 100 µM

**Q.** What about the TGI (MDA-MB-231 breast) of the same molecule?
**A.** 95.1 µM

**Q.** What about the TGI (CCRF-CEM leukemia) of the same molecule?
**A.** 50.2 µM

**Q.** And the TGI (ACHN renal)?
**A.** > 100 µM

**Q.** What about the TGI (NCI-H226 lung) of the same molecule?
**A.** > 100 µM

**Q.** And the TGI (MALME-3M melanoma)?
**A.** 29.2 µM

**Q.** And the TGI (MCF7 breast)?
**A.** > 100 µM

**Q.** And the TGI (UACC-257 melanoma)?
**A.** 31.4 µM

**Q.** What about the TGI (OVCAR-5 ovarian) of the same molecule?
**A.** > 100 µM

**Q.** And the TGI (UO-31 renal)?
**A.** 22.8 µM

**Q.** What about the TGI (CAKI-1 renal) of the same molecule?
**A.** > 100 µM

**Q.** What about the TGI (KM12 colon) of the same molecule?
**A.** 55.4 µM

**Q.** And the TGI (OVCAR-8 ovarian)?
**A.** > 100 µM

**Q.** What about the TGI (MDA-MB-435) of the same molecule?
**A.** 35.5 µM

**Q.** And the TGI (MDA-N)?
**A.** 38.6 µM

**Q.** And the TGI (IGROV1 ovarian)?
**A.** > 100 µM

**Q.** What about the TGI (NCI-H522 lung) of the same molecule?
**A.** 80 µM

**Q.** And the TGI (UACC-62 melanoma)?
**A.** 36.3 µM

**Q.** What about the TGI (COLO 205 colon) of the same molecule?
**A.** 37.4 µM

**Q.** What about the TGI (NCI-H460 lung) of the same molecule?
**A.** > 100 µM

**Q.** And the TGI (HCT-116 colon)?
**A.** > 100 µM

**Q.** And the TGI (RXF 393 renal)?
**A.** 59.6 µM

**Q.** And the TGI (SK-MEL-28 melanoma)?
**A.** 38.3 µM

**Q.** And the TGI (K-562 leukemia)?
**A.** 49.1 µM

**Q.** And the TGI (786-0 renal)?
**A.** 47.6 µM

**Q.** What about the TGI (U251 CNS) of the same molecule?
**A.** > 100 µM

**Q.** What about the TGI (SK-OV-3 ovarian) of the same molecule?
**A.** > 100 µM

**Q.** What about the TGI (OVCAR-3 ovarian) of the same molecule?
**A.** > 100 µM

**Q.** And the TGI (SNB-75 CNS)?
**A.** > 100 µM

**Q.** And the TGI (NCI-H23 lung)?
**A.** > 100 µM

**Q.** What about the TGI (HCC-2998 colon) of the same molecule?
**A.** 33.2 µM

**Q.** What about the TGI (OVCAR-4 ovarian) of the same molecule?
**A.** > 100 µM

**Q.** What about the TGI (MOLT-4 leukemia) of the same molecule?
**A.** 47.6 µM

**Q.** What about the TGI (PC-3 prostate) of the same molecule?
**A.** > 100 µM

**Q.** What about the TGI (BT-549 breast) of the same molecule?
**A.** > 100 µM

**Q.** And the TGI (HS 578T breast)?
**A.** > 100 µM

**Q.** What about the TGI (DU-145 prostate) of the same molecule?
**A.** > 100 µM

**Q.** And the TGI (A549 NSCLC)?
**A.** > 100 µM

**Q.** And the TGI (SNB-19 CNS)?
**A.** > 100 µM

**Q.** What about the TGI (EKVX NSCLC) of the same molecule?
**A.** 62 µM

**Q.** And the TGI (HOP-92 NSCLC)?
**A.** > 100 µM

**Q.** And the TGI (SW-620 colon)?
**A.** > 100 µM

**Q.** What about the TGI (SF-295 CNS) of the same molecule?
**A.** 37.9 µM

**Q.** And the TGI (SN12C renal)?
**A.** > 100 µM

**Q.** And the TGI (T-47D breast)?
**A.** > 100 µM

**Q.** What about the TGI (HOP-62 NSCLC) of the same molecule?
**A.** > 100 µM

**Q.** What about the TGI (M14 melanoma) of the same molecule?
**A.** 33.1 µM

**Q.** And the TGI (SF-268 CNS)?
**A.** > 100 µM

**Q.** And the TGI (HT29 colon)?
**A.** 49.2 µM

**Q.** What about the TGI (LOX IMVI melanoma) of the same molecule?
**A.** 60.2 µM

**Q.** And the TGI (SK-MEL-5 melanoma)?
**A.** 31.4 µM

**Q.** What about the TGI (SK-MEL-2 melanoma) of the same molecule?
**A.** 44.8 µM

**Q.** And the TGI (A498 renal)?
**A.** 33.2 µM

**Q.** And the TGI (TK-10 renal)?
**A.** > 100 µM

**Q.** And the TGI (HCT-15 colon)?
**A.** > 100 µM

**Q.** With `CC1CN=C(Nc2cccc(C(F)(F)F)c2)S1` (stereo not given) as the molecule, how does the TGI (MDA-MB-231 breast) read?
**A.** > 100 µM

**Q.** And the TGI (CCRF-CEM leukemia)?
**A.** > 100 µM

**Q.** What about the TGI (ACHN renal) of the same molecule?
**A.** > 100 µM

**Q.** What about the TGI (NCI-H226 lung) of the same molecule?
**A.** > 100 µM

**Q.** And the TGI (MALME-3M melanoma)?
**A.** > 100 µM

**Q.** What about the TGI (SR leukemia) of the same molecule?
**A.** > 100 µM

**Q.** And the TGI (MCF7 breast)?
**A.** > 100 µM

**Q.** And the TGI (UACC-257 melanoma)?
**A.** > 100 µM

**Q.** And the TGI (OVCAR-5 ovarian)?
**A.** > 100 µM

**Q.** What about the TGI (UO-31 renal) of the same molecule?
**A.** 78.6 µM

**Q.** What about the TGI (KM12 colon) of the same molecule?
**A.** > 100 µM

**Q.** What about the TGI (MDA-MB-435) of the same molecule?
**A.** > 100 µM

**Q.** What about the TGI (MDA-N) of the same molecule?
**A.** > 100 µM

**Q.** What about the TGI (RPMI-8226 leukemia) of the same molecule?
**A.** > 100 µM

**Q.** And the TGI (HL-60(TB) leukemia)?
**A.** 77 µM

**Q.** And the TGI (NCI-H522 lung)?
**A.** > 100 µM

**Q.** What about the TGI (UACC-62 melanoma) of the same molecule?
**A.** > 100 µM

**Q.** What about the TGI (NCI-H460 lung) of the same molecule?
**A.** > 100 µM

**Q.** What about the TGI (HCT-116 colon) of the same molecule?
**A.** > 100 µM

**Q.** And the TGI (RXF 393 renal)?
**A.** > 100 µM

**Q.** And the TGI (SK-MEL-28 melanoma)?
**A.** > 100 µM

**Q.** What about the TGI (K-562 leukemia) of the same molecule?
**A.** > 100 µM

**Q.** And the TGI (U251 CNS)?
**A.** > 100 µM

**Q.** What about the TGI (SK-OV-3 ovarian) of the same molecule?
**A.** > 100 µM

**Q.** What about the TGI (OVCAR-3 ovarian) of the same molecule?
**A.** > 100 µM

**Q.** And the TGI (SNB-75 CNS)?
**A.** > 100 µM

**Q.** What about the TGI (NCI-H23 lung) of the same molecule?
**A.** > 100 µM

**Q.** And the TGI (SF-539 CNS)?
**A.** > 100 µM

**Q.** And the TGI (HCC-2998 colon)?
**A.** > 100 µM

**Q.** And the TGI (MOLT-4 leukemia)?
**A.** > 100 µM

**Q.** What about the TGI (BT-549 breast) of the same molecule?
**A.** > 100 µM

**Q.** And the TGI (HS 578T breast)?
**A.** > 100 µM

**Q.** And the TGI (DU-145 prostate)?
**A.** > 100 µM

**Q.** And the TGI (SNB-19 CNS)?
**A.** > 100 µM

**Q.** And the TGI (EKVX NSCLC)?
**A.** > 100 µM

**Q.** And the TGI (T-47D breast)?
**A.** > 100 µM

**Q.** What about the TGI (HOP-62 NSCLC) of the same molecule?
**A.** > 100 µM

**Q.** And the TGI (M14 melanoma)?
**A.** > 100 µM

**Q.** What about the TGI (SF-268 CNS) of the same molecule?
**A.** > 100 µM

**Q.** What about the TGI (HT29 colon) of the same molecule?
**A.** > 100 µM

**Q.** And the TGI (LOX IMVI melanoma)?
**A.** > 100 µM

**Q.** What about the TGI (SK-MEL-2 melanoma) of the same molecule?
**A.** > 100 µM

**Q.** And the TGI (A498 renal)?
**A.** > 100 µM

**Q.** What about the TGI (TK-10 renal) of the same molecule?
**A.** > 100 µM

**Q.** And the TGI (HCT-15 colon)?
**A.** > 100 µM
